Assay results published in US10669258B2, “3-sulfonyl-5-aminopyridine-2,4-diol APJ agonists” (BRISTOL-MYERS SQUIBB COMPANY, priority 2016, dated 2020).
pEC50: −log10 of the molar value. Read-outs that look alike come from different tables or passages of the source.

Target: T1, human APJ receptor (Homo sapiens, UniProt P35414)
T1 construct: expressed in transfected cells; host or cells: HEK293
T1 sequence (P35414 1-380): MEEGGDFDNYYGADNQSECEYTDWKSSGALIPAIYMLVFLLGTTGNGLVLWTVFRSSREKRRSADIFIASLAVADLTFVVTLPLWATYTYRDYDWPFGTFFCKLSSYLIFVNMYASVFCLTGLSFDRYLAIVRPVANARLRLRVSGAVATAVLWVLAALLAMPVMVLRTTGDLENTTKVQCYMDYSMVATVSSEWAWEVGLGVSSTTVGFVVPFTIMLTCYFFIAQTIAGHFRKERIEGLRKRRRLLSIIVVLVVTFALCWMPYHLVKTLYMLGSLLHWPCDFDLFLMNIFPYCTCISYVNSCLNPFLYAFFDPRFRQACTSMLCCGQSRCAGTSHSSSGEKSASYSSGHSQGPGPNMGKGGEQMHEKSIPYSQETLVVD
Test: Intracellular cAMP accumulation assay (APJ hcAMP, HTRF)
Assay type: cell-based
Conditions: HEK293 cells stably expressing human APJ receptor, inhibition of forskolin-mediated cAMP production
Method in brief: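 HEK293 cells stably expressing the receptor (5,000/well) treated with compound plus […] and 2 μM forskolin for 30 min at room temperature; cAMP by HTRF against a cAMP standard curve. EC50 from variable-slope sigmoidal fit; Ymax as % of (Pyr1)apelin-13 inhibition.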

[1] = Table 1, read-out: hAPJ cAMP EC50 Potency range
[2] = hAPJ cAMP EC50 Potency range, Table 1

| SMILES | pEC50 [1] | other results |
| --- | --- | --- |
| CCN(c1ccccc1)c1c(-c2cnn(C)c2)nc(O)c(S(=O)(=O)c2ccc(-c3ccccc3C(=O)NC)cc2)c1O [Example 151, 4′-((5-(ethyl(phenyl)amino)-2,4-dihydroxy-6-(1-methyl-1H-pyrazol-4-yl)pyridin-3-yl)sulfonyl)-N-methyl-[1,1′-biphenyl]-2-carboxamide] | 8.00 to 11.00 | – |
| CCCCc1nc(O)c(S(=O)(=O)c2ccc(-c3ccccc3C(=O)N(C)C)cc2)c(O)c1N(C)c1ccccc1F [Example 171, 4′-((6-butyl-5-((2-fluorophenyl)(methyl)a-mino)-2,4-dihydroxypyridin-3-yl)sulfonyl)-N,N-dimethyl-[1,1′-biphenyl]-2-carboxamide] | 8.00 to 11.00 | – |
| CCCCc1nc(O)c(S(=O)(=O)c2ccc(-c3ccncc3C)cc2)c(O)c1N(C)c1cccc(Cl)c1 [Example 110, 6-butyl-5-((3-chlorophenyl)(methyl)amino)-3-((4-(3-methylpyridin-4-yl)phenyl)sulfonyl)pyridine-2,4-diol] | 8.00 to 11.00 | – |
| CCCCc1nc(O)c(S(=O)(=O)c2ccc(-c3ccncc3C)cc2)c(O)c1N(C)c1ccccc1 [Example 014, 6-butyl-5-(methyl(phenyl)amino)-3-((4-(3-methylpyridin-4-yl)phenyl)sulfonyl)pyridine-2,4-diol] | 8.00 to 11.00 | – |
| CCN(c1ccccc1)c1c(-c2cnc(C)s2)nc(O)c(S(=O)(=O)c2ccc(-c3ccccc3C(=O)NC)cc2)c1O [Example 192, 4′-((5-(ethyl(phenyl)amino)-2,4-dihydroxy-6-(2-methylthiazol-5-yl)pyridin-3-yl)suflonyl)-N-methyl-[1,1′-biphenyl]-2-carboxamide] | 8.00 to 11.00 | – |
| CCCCc1nc(O)c(S(=O)(=O)c2ccc(-c3cccnc3C)cc2)c(O)c1N(C)c1cccc(Cl)c1 [Example 102, 6-butyl-5-((3-chlorophenyl)(methyl)amino)-3-((4-(2-methylpyridin-3-yl)phenyl)sulfonyl)pyridine-2,4-diol] | 7.00 to 8.00 | – |
| CCCCc1nc(O)c(S(=O)(=O)c2ccc(-c3ccnc(F)c3C)cc2)c(O)c1N1CCCOc2ccccc21 [Example 127, 6-butyl-5-(3,4-dihydrobenzo[b][1,4]oxazepin-5(2H)-yl)-3-((4-(2-fluoro-3-methylpyridin-4-yl)phenyl)sulfonyl)pyridine-2,4-diol] | 8.00 to 11.00 | – |
| CCN(c1ccccc1)c1c(CC2CC2)nc(O)c(S(=O)(=O)c2ccc(-c3ccnc(F)c3C)cc2)c1O [Example 049, 6-(cyclopropylmethyl)-5-(ethyl(phenyl)amino)-3-((4-(2-fluoro-3-methylpyridin-4-yl)phenyl)sulfonyl)pyridine-2,4-diol] | 8.00 to 11.00 | – |
| CCN(c1ccccc1)c1c(-c2ccn(C)n2)nc(O)c(C(=O)N2CCC(c3ccc(F)cc3F)C2)c1O (stereo not shown) [Example 207, (3-(2,4-difluorophenyl)pyrrolidin-1-yl)(5-(ethyl(phenyl)amino)-2,4-dihydroxy-6-(1-methyl-1H-pyrazol-3-yl)pyridin-3-yl)methanone] | – | pEC50 (Table 2, read-out: hAPJ cAMP EC50 Potency range): 8.00 to 11.00 |
| CCN(c1ccccc1)c1c(CC2CC2)nc(O)c(S(=O)(=O)c2ccc(-c3cccnc3C)cc2)c1O [Example 050, 6-(cyclopropylmethyl)-5-(ethyl(phenyl)amino)-3-((4-(2-methylpyridin-3-yl)phenyl)sulfonyl)pyridine-2,4-diol] | 8.00 to 11.00 | – |
| CCCCc1nc(O)c(S(=O)(=O)c2ccc(-c3cccnc3C)cc2)c(O)c1N(C)c1ccc(C)cc1 [Example 097, 6-butyl-5-(methyl(p-tolyl)amino)-3-((4-(2-methylpyridin-3-yl)phenyl)sulfonyl)pyridine-2,4-diol] | 7.00 to 8.00 | – |
| CCCCc1nc(O)c(C(=O)N2CCN(Cc3cccc(Cl)c3Cl)CC2)c(O)c1N(CC)c1ccccc1 [Example 074, (6-butyl-5-(ethyl(phenyl)amino)-2,4-dihydroxypyridin-3-yl)(4-(2,3-dichlorobenzyl)piperazin-1-yl)methanone] | – | pEC50 [2]: 7.00 to 8.00 |
| CCCCc1nc(O)c(S(=O)(=O)c2ccc(-c3ccncc3C)cc2)c(O)c1N1CCCc2ccccc21 [Example 022, 6-butyl-5-(3,4-dihydroquinolin-1(2H)-yl)-3-((4-(3-methylpyridin-4-yl)phenyl)sulfonyl)pyridine-2,4-diol] | 8.00 to 11.00 | – |
| CCCCc1nc(O)c(S(=O)(=O)c2ccc(-c3ccccc3C(=O)NC3CC3)cc2)c(O)c1N(C)c1ccccc1C [Example 208, 4′-((6-butyl-2,4-dihydroxy-5-(methyl(o-tolyl)amino)pyridin-3-yl)sulfonyl)-N-cyclopropyl-[1,1′-biphenyl]-2-carboxamide] | 8.00 to 11.00 | – |
| CCCCc1nc(O)c(S(=O)(=O)c2ccc(-c3ccnc(F)c3C)cc2)c(O)c1N(C)c1ccccc1 [Example 011, 6-butyl-3-((4-(2-fluoro-3-methylpyridin-4-yl)phenyl)sulfonyl)-5-(methyl(phenyl)amino)pyridine-2,4-diol] | 8.00 to 11.00 | – |
| CCCCc1nc(O)c(S(=O)(=O)c2ccc(-c3ccc(F)nc3C)cc2)c(O)c1N1CCCCC1c1ccccc1 (stereo not shown) [Example 126, 6-butyl-3-((4-(6-fluoro-2-methylpyridin-3-yl)phenyl)sulfonyl)-5-(2-phenylpiperidin-1-yl)pyridine-2,4-diol] | 7.00 to 8.00 | – |
| CCCCc1nc(O)c(S(=O)(=O)c2ccc(-c3ccncc3C)cc2)c(O)c1N(C)c1ccccc1C [Example 203, 6-butyl-5-(methyl(o-tolyl)amino)-3-((4-(3-methypyridin-4-yl)phenyl)sulfonyl)pyri-dine-2,4-diol] | 8.00 to 11.00 | – |
| CCCCc1nc(O)c(S(=O)(=O)c2ccc(-c3ccnc(F)c3C)cc2)c(O)c1N(C)c1cccc(C)c1 [Example 091, 6-butyl-3-((4-(2-fluoro-3-methylpyridin-4-yl)phenyl)sulfonyl)-5-(methyl(m-tolyl)amino)pyridine-2,4-diol] | 8.00 to 11.00 | – |
| CCCCc1nc(O)c(S(=O)(=O)c2ccc(-c3ccccc3C(=O)N(C)C)cc2)c(O)c1N1CCCOc2ccccc21 [Example 142, 4′-((6-butyl-5-(3,4-dihydrobenzo[b][1,4]oxazepin-5(2H)-yl)-2,4-dihydroxypyridin-3-yl)sulfonyl)-N,N-dimethyl-[1,1′-biphenyl]-2-carboxamide] | 7.00 to 8.00 | – |
| CCCCc1nc(O)c(S(=O)(=O)c2ccc(-c3ccncc3C)cc2)c(O)c1N(c1ccccc1)C(C)C [Example 027, 6-butyl-5-(isopropyl(phenyl)amino)-3-((4-(3-methylpyridin-4-yl)phenyl)sulfonyl)pyridine-2,4-diol] | 8.00 to 11.00 | – |
| CNC(=O)c1ccccc1-c1ccc(S(=O)(=O)c2c(O)nc(-c3ccn(C)n3)c(N(c3ccccc3)C(C)C)c2O)cc1 [Example 158, 4′-((2,4-dihydroxy-5-(isopropyl(phen-yl)amino)-6-(1-methyl-1H-pyrazol-3-yl)pyridin-3-yl)sulfonyl)-N-methyl-[1,1′-biphenyl]-2-carboxamide] | 8.00 to 11.00 | – |
| CCN(c1ccccc1)c1c(-c2ccn(C)n2)nc(O)c(S(=O)(=O)c2ccc(-c3ccccc3C(N)=O)cc2)c1O [Example 148, 4′-((5-(ethyl(phenyl)amino)-2,4-dihydroxy-6-(1-methyl-1H-pyrazol-3-yl)pyridin-3-yl)sulfonyl)-[1,1′-biphenyl]-2-carboxamide] | 8.00 to 11.00 | – |
| CCCCc1nc(O)c(S(=O)(=O)c2ccc(-c3ccc(F)nc3)cc2)c(O)c1N(CC)c1ccccc1 [Example 002, 6-butyl-5-(ethyl(phenyl)amino)-3-((4-(6-fluoropyridin-3-yl)phenyl)sulfonyl)pyridine-2,4-diol] | – | pEC50 (read-out: Human APJ cAMP Potency range): 8.00 to 11.00 |
| CCN(c1ccccc1)c1c(-c2cnn(C)c2)nc(O)c(S(=O)(=O)c2ccc(-c3cccnc3C)cc2)c1O [Example 150, 5-(ethyl(phenyl)amino)-6-(1-methyl-1H-pyrazol-4-yl)-3-((4-(2-methylpyridin-3-yl)phenyl)sulfonyl)pyri-dine-2,4-diol] | 8.00 to 11.00 | – |
| CNC(=O)c1cccc(-c2ccc(S(=O)(=O)c3c(O)nc(-c4ccn(C)n4)c(N(c4ccccc4)C(C)C)c3O)cc2)c1 [Example 163, 4′-((2,4-dihydroxy-5-(isopropyl(phen-yl)amino)-6-(1-methyl-1H-pyrazol-3-yl)pyridin-3-yl)sulfonyl)-N-methyl-[1,1′-biphenyl]-3-carboxamide] | 8.00 to 11.00 | – |
| CCCCc1nc(O)c(C(=O)N2CCC(c3ccc(Cl)cn3)C2)c(O)c1N(CC)c1ccccc1 (stereo not shown) [Example 076, (6-butyl-5-(ethyl(phenyl)amino)-2,4-dihydroxypyridin-3-yl)(3-(5-chloropyridin-2-yl)pyrrolidin-1-yl)methanone] | – | pEC50 [2]: 7.00 to 8.00 |
| CCN(c1cccc(C#N)c1)c1c(-c2ccn(C)n2)nc(O)c(S(=O)(=O)c2ccc(-c3ccccc3C(=O)NC3CC3)cc2)c1O [Example 218, 4′-((5-((3-cyanophenyl)(ethyl)ami-no)-2,4-dihydroxy-6-(1-methyl-1H-pyrazol-3-yl)pyridin-3-y)sulfonyl)-N-cyclopropyl-[1,1′-biphenyl]-2-carboxamide] | 8.00 to 11.00 | – |
| CCCCc1nc(O)c(S(=O)(=O)c2ccc(-c3ccnc(F)c3C)cc2)c(O)c1N(C)c1ccc(OC)cc1 [Example 038, 6-butyl-3-((4-(2-fluoro-3-methylpyridin-4-yl)phenyl)sulfonyl)-5-((4-methoxyphenyl)(methyl)amino)pyridine-2,4-diol] | 8.00 to 11.00 | – |
